In ChEMBL document CHEMBL1142282, “Asymmetric synthesis and stereochemical structure-activity relationship of (R)- and (S)-8-[1-(2,4-dichlorophenyl)-2-imidazol-1-yl-ethoxy] octanoic acid heptyl ester, a potent inhibitor of allene oxide synthase” (Bioorg Med Chem, 2008):
pIC50, pKd: −log10 of the molar value.

Experiments:
[1] = Binding affinity at arabidopsis recombinant allene oxide synthase
Arabidopsis = assay: Inhibition of arabidopsis recombinant allene oxide synthase at 1 uM
[2] = Inhibition of arabidopsis recombinant allene oxide synthase; conditions: read-out: I50

Row | Compound | pKd [1] | inhibition (Arabidopsis) | pIC50 [2]
1 | CCCCCCCOC(=O)CCCCCCCO[C@H](Cn1ccnc1)c1ccc(Cl)cc1Cl | 5.32 | 50% | 6.02
2 | CCCCCCCOC(=O)CCCCCCCO[C@@H](Cn1ccnc1)c1ccc(Cl)cc1Cl | 5.85 | 93% | 8.30
